pIC50: −log10 of the molar value.
What was measured:
Kasumi-1 cells = experiment: Kasumi-1 cellular viability assay (ATP-Lite, 72 h); type: cell-based; settings: Homo sapiens, ATP-Lite luminescence, % viability relative to DMSO
In short: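 Kasumi-1 AML cells, 15000/well in RPMI-1640 with 10% FBS, were exposed to compound titrations (0.1% final DMSO) for 72 h at 37 °C, 5% CO2. ATP-Lite One Step luminescence gave % viability versus DMSO control, and IC50 came from the concentration-response.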

Caov-3 cells = experiment: Caov-3 cellular viability assay (ATP-Lite, 72 h); type: cell-based; settings: Homo sapiens, ATP-Lite luminescence, % viability relative to DMSO
In short: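 10000 cells/well treated 72 h at 37 °C, 5% CO2, in RPMI-1640 with 10% FBS and 0.1% DMSO final. Viability by ATP-Lite One Step luminescence. Expressed as % of DMSO control, with IC50 from each compound's concentration-response curve.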

[1] = target: T1, recombinant METTL3/METTL14 complex (Homo sapiens, UniProt Q86U44); experiment: METTL3/14 Scintillation Proximity Assay (SPA), RNA methyltransferase activity; type: biochemical; settings: 5.31 nM METTL3/14 complex, 250 nM RNA substrate, 1 μM 3H-SAM, 90 min; for compounds marked * best of the two separated forms
T1 construct: purchased Active Motif 311970; host or cells: Sf9 cells
T1 sequence (Q86U44 whole entry): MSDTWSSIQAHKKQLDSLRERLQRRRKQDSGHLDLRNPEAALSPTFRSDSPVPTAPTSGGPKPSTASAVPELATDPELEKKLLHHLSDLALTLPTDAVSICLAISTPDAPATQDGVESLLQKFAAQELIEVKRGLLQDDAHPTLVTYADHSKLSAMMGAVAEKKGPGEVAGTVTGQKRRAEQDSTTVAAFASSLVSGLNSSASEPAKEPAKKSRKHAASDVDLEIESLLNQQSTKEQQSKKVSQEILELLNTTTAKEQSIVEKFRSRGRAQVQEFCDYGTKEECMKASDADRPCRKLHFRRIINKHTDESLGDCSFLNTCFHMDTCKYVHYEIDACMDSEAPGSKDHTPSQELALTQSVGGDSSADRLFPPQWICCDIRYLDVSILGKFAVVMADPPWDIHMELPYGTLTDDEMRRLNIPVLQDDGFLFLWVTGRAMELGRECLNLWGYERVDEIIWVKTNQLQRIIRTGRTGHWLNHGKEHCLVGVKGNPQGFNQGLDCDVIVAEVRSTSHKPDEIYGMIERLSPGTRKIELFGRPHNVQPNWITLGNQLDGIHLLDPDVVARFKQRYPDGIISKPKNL
T1 sequence (Q9HCE5 whole entry partner): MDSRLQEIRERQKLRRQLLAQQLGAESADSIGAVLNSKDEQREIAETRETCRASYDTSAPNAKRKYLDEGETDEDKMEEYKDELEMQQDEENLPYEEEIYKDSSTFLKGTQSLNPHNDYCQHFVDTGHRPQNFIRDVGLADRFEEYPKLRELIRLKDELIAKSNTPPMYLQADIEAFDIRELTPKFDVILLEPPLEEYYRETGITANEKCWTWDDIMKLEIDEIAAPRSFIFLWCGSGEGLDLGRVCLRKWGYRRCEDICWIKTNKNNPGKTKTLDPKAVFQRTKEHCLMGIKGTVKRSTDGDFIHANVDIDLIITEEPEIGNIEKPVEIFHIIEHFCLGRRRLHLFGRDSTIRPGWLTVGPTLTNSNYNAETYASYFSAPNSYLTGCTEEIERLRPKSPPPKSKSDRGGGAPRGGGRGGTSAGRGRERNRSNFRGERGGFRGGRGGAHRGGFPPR

pIC50 [1] | SMILES | pIC50 (Kasumi-1 cells) | pIC50 (Caov-3 cells)
≥ 7.30 | c1ncc(-c2cn(C3(c4ccc(N5CCC[C@@H](NCC6CC6)C5)cn4)COC3)nn2)cc1CC1CC1 [Compound 346, (R)-N-(cyclopropylmethyl)-1-(6-(3-(4-(5-(cyclopropylmethyl)pyridin-3-yl)-1H-1,2,3-triazol-1-yl)oxetan-3-yl)pyridin-3-yl)piperdin-3-amine] | ≥ 6.30 | ≥ 6.30
≥ 7.30 | c1ncc(C2CC2)cc1-c1cn(C2(c3ccc(N4CCC[C@@H](NCC5CC5)C4)cn3)CNC2)nn1 [Compound 349, (R)-N-(cyclopropylmethyl)-1-(6-(3-(4-(5-cyclopropylpyridin-3-yl)-1H-1,2,3-triazol-1-yl)azetidin-3-yl)pyridin-3-yl)piperidin-3-amine] | < 5.30 | 5.30 to 6.30
≥ 7.30 | CN1CC(c2ccc(N3CCC[C@@H](NCC4CC4)C3)cn2)(n2cc(-c3cncc(C4CC4)c3)nn2)C1 [Compound 350, (R)-N-(cyclopropylmethyl)-1-(6-(3-(4-(5-cyclopropylpyridin-3-yl)-1H-1,2,3-triazol-1-yl)-1-methylazetidin-3-yl)pyridin-3-yl)piperidin-3-amine] | 5.30 to 6.30 | 5.30 to 6.30
≥ 7.30 | c1ncc(C2CC2)cc1-c1nnc(C2(c3ccc(N4CCC[C@@H](NCC5CC5)C4)cn3)COC2)s1 [Compound 352, (R)-N-(cyclopropylmethyl)-1-(6-(3-(5-(5-cyclopropylpyridin-3-yl)-1,3,4-thiadiazol-2-yl)oxetan-3-yl)pyridin-3-yl)piperidin-3-amine] | ≥ 6.30 | ≥ 6.30
≥ 7.30 | CC(c1ccc(N2CCC[C@@H](NCC3CC3)C2)nn1)c1nnc(-c2cncc(C3CC3)c2)s1 (stereo partly drawn) [Compound 358, (3R)—N-(cyclopropylmethyl)-1-(6-(1-(5-(5-cyclopropylpyridin-3-yl)-1,3,4-thiadiazol-2-yl)ethyl)pyridazin-3-yl)piperidin-3-amine] | 5.30 to 6.30 | ≥ 6.30
≥ 7.30 | CC(c1ccc(N2CCC[C@@H](NCC3CC3)C2)cn1)c1nnc(-c2cncc(C3CC3)c2)s1 (stereo partly drawn) [Compound 359, (3R)—N-(cyclopropylmethyl)-1-(6-(1-(5-(5-cyclopropylpyridin-3-yl)-1,3,4-thiadiazol-2-yl)ethyl)pyridin-3-yl)piperidin-3-amine] | ≥ 6.30 | ≥ 6.30
≥ 7.30 | c1cc(Cc2nnc(-c3cncc(N4CCCC4)n3)s2)ncc1N1CCC[C@@H](NCC2CC2)C1 [Compound 361, (R)-N-(cyclopropylmethyl)-1-(6-((5-(6-(pyrrolidin-1-yl)pyrazin-2-yl)-1,3,4-thiadiazol-2-yl)methyl)pyridin-3-yl)piperidin-3-amine] | ≥ 6.30 | ≥ 6.30
≥ 7.30 | c1ncc(C2CC2)cc1-c1nnc(Cc2ccc(N3CCC[C@@H](NCC4CC4)C3)cn2)s1 [Compound 362, (R)-N-(cyclopropylmethyl)-1-(6-((5-(5-cyclopropylpyridin-3-yl)-1,3,4-thiadiazol-2-yl)methyl)pyridin-3-yl)piperidin-3-amine] | ≥ 6.30 | ≥ 6.30
≥ 7.30 | CC(C)(c1ccc(N2CCC[C@@H](NCC3CC3)C2)cn1)c1nnc(-c2cncc(C3CC3)c2)s1 [Compound 363, (R)-N-(cyclopropylmethyl)-1-(6-(2-(5-(5-cyclopropylpyridin-3-yl)-1,3,4-thiadiazol-2-yl)propan-2-yl)pyridin-3-yl)piperidin-3-amine] | 5.30 to 6.30 | 5.30 to 6.30
≥ 7.30 | CC(C)(c1ccc(N2CCC[C@@H](NCC3CC3)C2)cn1)c1nnc(-c2cncc(N3CCCC3)n2)s1 [Compound 364, (R)-N-(cyclopropylmethyl)-1-(6-(2-(5-(6-(pyrrolidin-1-yl)pyrazin-2-yl)-1,3,4-thiadiazol-2-yl)propan-2-yl)pyridin-3-yl)piperidin-3-amine] | ≥ 6.30 | ≥ 6.30
≥ 7.30 | CC1(CN[C@@H]2CCCN(c3ccc(C4(c5nnc(-c6cncc(N7CCCC7)n6)s5)COC4)nc3)C2)CC1 [Compound 367, (R)-N-((1-methylcyclopropyl)methyl)-1-(6-(3-(5-(6-(pyrrolidin-1-yl)pyrazin-2-yl)-1,3,4-thiadiazol-2-yl)oxetan-3-yl)pyridin-3-yl)piperdin-3-amine] | ≥ 6.30 | ≥ 6.30
≥ 7.30 | CC1(CN[C@@H]2CCCN(c3ccc(C4(c5nnc(-c6cncc(C7CC7)c6)s5)COC4)nc3)C2)CC1 [Compound 368, (R)-1-(6-(3-(5-(5-cyclopropylpyridin-3-yl)-1,3,4-thiadiazol-2-yl)oxetan-3-yl)pyridin-3-yl)-N-((1-methylcyclopropyl)methyl)piperidin-3-amine] | ≥ 6.30 | ≥ 6.30
≥ 7.30 | c1cc(C2(c3nnc(-c4cncc(N5CCCC5)n4)s3)COC2)ncc1N1CCC[C@@H](NCC2CC2)C1 [Compound 369, (R)-N-(cyclopropylmethyl)-1-(6-(3-(5-(6-(pyrrolidin-1-yl)pyrazin-2-yl)-1,3,4-thiadiazol-2-yl)oxetan-3-yl)pyridin-3-yl)piperidin-3-amine] | ≥ 6.30 | ≥ 6.30
